Source: patent publication US20240050342A1, “PROLIPID COMPOSITION FOR PERSONALIZED BENEFITS AND METHOD FOR USING THE SAME” (Conopco, Inc., d/b/a UNILEVER, priority 2020, published 2024)

Key:
[1] = test system: human skin discards; assay: Sphingosine/ceramide formation from deuterated palmitic acid in ex vivo human skin model (LC/MS/MS); assay type: cell-based
Description: In this experiment, a standard topical base composition was charged with 3% by weight deuterated d31palmitic acid and a second base was charged with 3% by weight deuterated d31palmitic acid in combination with 3% by weight 12-hydroxystearic acid. Both compositions were applied to separate human skin discards. Biopsies were taken, placed on collagen and incubated at 37° C. with about 5% carbon dioxide. Samples were harvested after 5 days, extracted, and fractionated to obtain ceramide fractions. Elongation of deuterated d31Palmitic acid (dC16:0) with and without the PPAR activator 12-hydroxystearic acid was investigated in an ex vivo human skin model. The ceramide fraction obtained was hydrolyzed to release deuterated sphingosine and analyzed via liquid chromatography/tandem mass-spectrometry (LC/MS/MS). This technique was used to identify and measure “precursor-to-product” ion transitions specific to deuterated sphingosine, and therefore, to track sphingosine formation from deuterated palmitic acid applied to skin discards. Unexpectedly, the amount of resulting deuterated sphingosine increased in the presence the PPAR activator. The numbers in units (“u”) provided depict the signal abundance of the biomolecules looked and accounted for in a sample as determined by LC/MS/MS. […]

[2] = test system: neonatal keratinocyte model; assay: Elongation of deuterated d31-Palmitic acid with and without 12-hydroxystearic acid in neonatal keratinocyte model (LC/MS/MS); assay type: cell-based
Description: In this experiment the elongation of deuterated d31-Palmitic acid (dC16:0) with and without PPAR activator 12-hydroxystearic was investigated in a neonatal keratinocyte model. Keratinocytes were grown in an EpiLife™ medium (with calcium, from Thermo Fisher Scientific) in six well plate formats until confluency. Confluent keratinocytes were differentiated with CaCl2 treatment. The cells in wells deplete of PPAR activator were treated with the substrate: 1 uM of d31-Palmitic acid (dC16:0) every second or third day until harvested on day 7. The remainder of the samples were treated with 1 uM of the aforementioned dC16:0 and 12 hydroxystearic acid at the concentrations shown in the tables. Samples were extracted and analyzed via liquid chromatography/tandem mass-spectrometry (LC/MS/MS) for deuterated d31-Palmitic acid (dC16:0) elongation. Precursor-to-product ion transitions, specific to deuterated elongated fatty acids derived from d31-Palmitic acid, were identified and measured.

[3] = test system: EpiDerm in vitro 3D skin equivalents of keratinocytes; assay: Elongation of deuterated d23-Lauric acid in EpiDerm 3D skin equivalents (LC/MS/MS); assay type: cell-based, human; conditions: for d23 C12:0 signal: lauric acid prior to elongation
Description: In this experiment, EpiDerm in vitro 3D skin equivalents of keratinocytes (commercially available from Matek) were used as a model system to investigate bioconversions in human skin. The skin equivalents were topically treated with deuterated d23-Lauric acid (dC12:0) in propylene glycol:ethanol (70:30), one time per day for seven days with concentrations in the range of 400 ng/cm^2 to 5000 ng/cm^2. Samples were harvested, extracted and analyzed via liquid chromatography/tandem mass-spectrometry (LC/MS/MS) for deuterated d23-Lauric acid elongation. Precursor-to-product (i.e., elongation) ion transitions, specific to deuterated elongated fatty acids derived from d23 Lauric acid, were identified and measured. The first column depicts the signal for lauric acid provided to the EpiDerm prior to elongation.

[4] = 1 uM d31-Palmitic acid, No 12 HSA, harvested day 7
[5] = 12HSA 3 uM with 1 uM dC16:0, harvested day 7
[6] = 12HSA 10 uM with 1 uM dC16:0, harvested day 7
[7] = 12HSA 30 uM with 1 uM dC16:0, harvested day 7
[8] = 12HSA 100 uM with 1 uM dC16:0, harvested day 7
[9] = 400 ng/cm2, once per day for seven days
[10] = 1000 ng/cm2, once per day for seven days
[11] = 5000 ng/cm2 dC12:0, once per day for seven days

Compound: [2H]C([2H])([2H])C([2H])([2H])C([2H])([2H])C([2H])([2H])C([2H])([2H])C([2H])([2H])C([2H])([2H])C([2H])([2H])C([2H])([2H])C([2H])([2H])C([2H])([2H])C([2H])([2H])C([2H])([2H])C([2H])([2H])C([2H])([2H])C(=O)O [deuterated palmitic acid, d31-Palmitic acid]
- Deuterated Sphingosine signal abundance ([1]; hydrolyzed ceramide fraction, composition with 3% by weight of each ingredient applied to human skin discards, harvested after 5 days, 37° C.): 36,958 u
- dC16:0 signal [2, 4]: 646987 u
- dC18:0 signal [2, 4]: 663577 u
- dC20:0 signal [2, 4]: 11233 u
- dC22:0 signal [2, 4]: 90496 u
- dC24:0 signal [2, 4]: 278426 u
- dC26:0 signal [2, 4]: 60009 u

Compound: CCCCCCC(O)CCCCCCCCCCC(=O)O (stereo not shown) [12HSA, 12-hydroxystearic acid]
- amount of resulting deuterated sphingosine in the presence of the PPAR activator ([1]; 3% 12-hydroxystearic acid with 3% d31palmitic acid vs d31palmitic acid alone): increased
- dC16:0 signal [2, 5]: 486506 u
- dC18:0 signal [2, 5]: 710249 u
- dC20:0 signal [2, 5]: 11478 u
- dC22:0 signal [2, 5]: 94091 u
- dC24:0 signal [2, 5]: 294398 u
- dC26:0 signal [2, 5]: 60180 u
- dC16:0 signal [2, 6]: 503533 u
- dC18:0 signal [2, 6]: 713499 u
- dC20:0 signal [2, 6]: 13666 u
- dC22:0 signal [2, 6]: 98634 u
- dC24:0 signal [2, 6]: 306176 u
- dC26:0 signal [2, 6]: 62141 u
- dC16:0 signal [2, 7]: 921997 u
- dC18:0 signal [2, 7]: 792317 u
- dC20:0 signal [2, 7]: 18245 u
- dC22:0 signal [2, 7]: 131062 u
- dC24:0 signal [2, 7]: 470314 u
- dC26:0 signal [2, 7]: 109818 u
- dC16:0 signal [2, 8]: 677241 u
- dC18:0 signal [2, 8]: 750585 u
- dC20:0 signal [2, 8]: 75060 u
- dC22:0 signal [2, 8]: 201806 u
- dC24:0 signal [2, 8]: 774622 u
- dC26:0 signal [2, 8]: 219006 u
- effect on formation of elongated fatty acids from d31-Palmitic acid ([2]; compared to samples deplete of the activator): boosts and enhances the formation of elongated fatty acids from d31C16:0 to d31C26:0

Compound: [2H]C([2H])([2H])C([2H])([2H])C([2H])([2H])C([2H])([2H])C([2H])([2H])C([2H])([2H])C([2H])([2H])C([2H])([2H])C([2H])([2H])C([2H])([2H])C([2H])([2H])C(=O)O [dC12:0, d23-Lauric acid]
- d23 C14:0 signal [3, 9]: 4670 u
- d23 C16:0 signal [3, 9]: 46204 u
- d23 C18:0 signal [3, 9]: 140851 u
- d23 C20 signal [3, 9]: 20848 u
- d23 C22:0 signal [3, 9]: 45885 u
- d23 C24:0 signal [3, 9]: 68863 u
- d23 C12:0 signal [3, 9]: 24559 u
- d23 C14:0 signal [3, 10]: 7481 u
- d23 C16:0 signal [3, 10]: 338885 u
- d23 C18:0 signal [3, 10]: 467624 u
- d23 C20 signal [3, 10]: 54050 u
- d23 C22:0 signal [3, 10]: 128640 u
- d23 C24:0 signal [3, 10]: 187974 u
- d23 C12:0 signal [3, 10]: 51904 u
- d23 C14:0 signal [3, 11]: 53655 u
- d23 C16:0 signal [3, 11]: 1026969 u
- d23 C18:0 signal [3, 11]: 1355969 u
- d23 C20 signal [3, 11]: 227595 u
- d23 C22:0 signal [3, 11]: 513274 u
- d23 C24:0 signal [3, 11]: 758093 u
- d23 C12:0 signal [3, 11]: 528578 u
- bioconversion/elongation of dC12:0 in skin equivalents ([3]; enzymes present in the skin equivalents): convert to dC16:0 via fatty acid synthase enzyme, followed by further elongation of dC16:0 to deuterated Lignoceric acid C24:0
